Experimental findings from patent US9593108B2, “Compounds and methods for antiviral treatment” (PTC Therapeutics, Inc., priority 2009, dated 2017) are described below.

Data set [1] concerns HCV replicon RNA (GenBank Accession No. AJ242654). The data set can be described thus: HCV Replicon Assay (replicon RNA reduction and/or Fluc reporter signal). Format: cell-based, Hepatitis C virus. The conditions noted are these: Hepatitis C virus, 72 h, replicon-containing cells cultured with test compound for up to 3 days. Summed up:
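IC50 values mostly reflect the drop in replicon RNA, though Fluc reporter signal may also be used. Compound incubated with cells carrying the bicistronic replicon for as long as 3 days; interferon served as positive control.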
A general note: In antiviral work, replicon cells carry a viral genome segment that copies itself.

As usually defined, the IC50 is the point on the concentration scale where inhibition reaches its midpoint. As a reminder, the melting point is the temperature of the solid-liquid transition. The molecule `Cc1ccc2c(C#N)c(-c3ccc(S(=O)(=O)NC(C)C)cc3)n(CC3CC3)c2n1` [Cpd 5, 4-[3-cyano-1-(cyclopropylmethyl)-6-methyl-1H-pyrrolo[2,3-b]pyridin-2-yl]-N-(propan-2-yl)benzenesulfonamide] had a melting point of 175 to 177 °C. Further, the IC50 in data set [1] was less than 500 nM.

The molecule `C[C@H](NS(=O)(=O)c1ccc(-c2c(C#N)c3cc(C(F)(F)F)cnc3n2-c2ccccc2)nc1)C(F)(F)F` [Cpd 318, 6-[3-cyano-1-phenyl-5-(trifluoromethyl)-1H-pyrrolo[2,3-b]pyridin-2-yl]-N-[(2S)-1,1,1-trifluoropropan-2-yl]pyridine-3-sulfonamide] displayed a melting point of 186 to 188 °C. The molecule also yielded an IC50 in data set [1] of less than 500 nM.

`CC(C)(C)S(=O)(=O)Nc1ccc(-c2c(C#N)c3ncc(Cl)cc3n2C2CCCCC2)cc1` [Cpd 288, N-[4-(6-chloro-3-cyano-1-cyclohexyl-1H-pyrrolo[3,2-b]pyridin-2-yl)phenyl]-2-methylpropane-2-sulfonamide]: the melting point was in the range of 279 to 283 °C. The molecule further showed an IC50 in data set [1] of 500 to 2000 nM.

`Cc1cnc2c(C#N)c(-c3ncc(S(=O)(=O)N[C@@H](C)C(F)(F)F)cn3)n(C3CCC3)c2c1` [Cpd 215, 2-(3-cyano-1-cyclobutyl-6-methyl-1H-pyrrolo[3,2-b]pyridin-2-yl)-N-[(2S)-1,1,1-trifluoropropan-2-yl]pyrimidine-5-sulfonamide] returned a melting point of 268 to 269 °C. In data set [1], this molecule came in with a half-maximal inhibitory concentration (IC50) of 500 to 2000 nM.

Consider `CSc1cnc2c(c1)c(C#N)c(-c1ccc(S(=O)(=O)N[C@@H](C)C(F)(F)F)cn1)n2C1CCC1` [Cpd 323, 6-[3-cyano-1-cyclobutyl-5-(methylsulfanyl)-1H-pyrrolo[2,3-b]pyridin-2-yl]-N-[(2S)-1,1,1-trifluoropropan-2-yl]pyridine-3-sulfonamide], for which the melting point was in the range of 154 to 158 °C. In addition, the half-maximal inhibitory concentration (IC50) in data set [1] was less than 500 nM.

Consider `N#Cc1c(-c2ccc(S(=O)(=O)NC3(C(F)(F)F)CC3)cn2)n(C2CCC2)c2ncc(Cl)cc12` [Cpd 57, 6-(5-chloro-3-cyano-1-cyclobutyl-1H-pyrrolo[2,3-b]pyridin-2-yl)-N-[1-(trifluoromethyl)cyclopropyl]pyridine-3-sulfonamide], for which the melting point lay in the range of 254 to 255 °C. Further, in data set [1], the half-maximal inhibitory concentration (IC50) was less than 500 nM.

With `CCc1cnc2c(c1)c(C#N)c(-c1ccc(S(=O)(=O)NC(C)(C)C(F)(F)F)cc1)n2C1CCC1` [Cpd 182, 4-(3-cyano-1-cyclobutyl-5-ethyl-1H-pyrrolo[2,3-b]pyridin-2-yl)-N-(1,1,1-trifluoro-2-methylpropan-2-yl)benzenesulfonamide], the melting point is 190 to 195 °C. The IC50 in data set [1] was less than 500 nM.

Turning to `CCc1cnc2c(c1)c(C(N)=O)c(-c1ccc(S(=O)(=O)N[C@@H](C)C(F)(F)F)cn1)n2C1CCC1` [Cpd 377, 1-cyclobutyl-5-ethyl-2-(5-{[(2S)-1,1,1-trifluoropropan-2-yl]sulfamoyl}pyridin-2-yl)-1H-pyrrolo[2,3-b]pyridine-3-carboxamide], the melting point lay within 236 to 240 °C. In data set [1], the IC50 was less than 500 nM.

Molecule `CC(C)(NS(=O)(=O)c1ccc(-c2c(C#N)c3cc(Cl)cnc3n2C2CCC2)nc1)C(F)(F)F` [Cpd 56, 6-(5-chloro-3-cyano-1-cyclobutyl-1H-pyrrolo[2,3-b]pyridin-2-yl)-N-(1,1,1-trifluoro-2-methylpropan-2-yl)pyridine-3-sulfonamide] came in with a melting point of 221 to 222 °C. In data set [1], this molecule displayed an IC50 of less than 500 nM.

In the case of `CN(Cc1ccccc1)c1cnc2c(c1)c(C#N)c(-c1ccc(S(=O)(=O)NC(C)(C)C)cc1)n2C1CCC1` [Cpd 351, 4-{5-[benzyl(methyl)amino]-3-cyano-1-cyclobutyl-1H-pyrrolo[2,3-b]pyridin-2-yl}-N-tert-butylbenzenesulfonamide], the melting point was 168 to 171 °C. The molecule also had a 50% inhibitory concentration (IC50) in data set [1] of 2000 to 5000 nM.

`Cc1cnc2c(c1)c(C(N)=O)c(-c1ccc(S(=O)(=O)NC(C)(C)C(F)(F)F)cc1)n2C1CCC1` [Cpd 341, 1-cyclobutyl-5-methyl-2-{4-[(1,1,1-trifluoro-2-methylpropan-2-yl)sulfamoyl]phenyl}-1H-pyrrolo[2,3-b]pyridine-3-carboxamide] came in with a melting point of 235 to 237 °C. For the same molecule, in data set [1], the 50% inhibitory concentration (IC50) was less than 500 nM.

For the molecule `Cc1cc2c(cn1)c(C#N)c(-c1ncc(S(=O)(=O)NC(CF)CF)cn1)n2C1CCC1` [Cpd 27, 2-(3-cyano-1-cyclobutyl-6-methyl-1H-pyrrolo[3,2-c]pyridin-2-yl)-N-(1,3-difluoropropan-2-yl)pyrimidine-5-sulfonamide], the melting point is 234 to 236 °C. The molecule further had an IC50 in data set [1] of less than 500 nM.

Turning to `C[C@H](NS(=O)(=O)c1ccc(-c2c(C#N)c3cc(C4CC4)cnc3n2C2CCC2)cc1)C(F)(F)F` [Cpd 115, 4-(3-cyano-1-cyclobutyl-5-cyclopropyl-1H-pyrrolo[2,3-b]pyridin-2-yl)-N-[(2S)-1,1,1-trifluoropropan-2-yl]benzenesulfonamide], the melting point fell in the range of 196 to 203 °C. In data set [1], this molecule displayed a half-maximal inhibitory concentration (IC50) of 500 to 2000 nM.

As for `CCc1cnc2c(c1)c(C#N)c(-c1ccc(S(=O)(=O)N[C@@H](C)C(F)(F)F)cn1)n2-c1ncc(F)cn1` [Cpd 473, 6-[3-cyano-5-ethyl-1-(5-fluoropyrimidin-2-yl)-1H-pyrrolo[2,3-b]pyridin-2-yl]-N-[(2S)-1,1,1-trifluoropropan-2-yl]pyridine-3-sulfonamide], the melting point was in the range of 175 to 177 °C. For the same molecule, the IC50 in data set [1] was less than 500 nM.

With `Cc1cc(-c2c(C#N)c3cc(C(F)(F)F)cnc3n2C2CCC2)ncc1S(=O)(=O)N[C@@H](C)C(F)(F)F` [Cpd 298, 6-[3-cyano-1-cyclobutyl-5-(trifluoromethyl)-1H-pyrrolo[2,3-b]pyridin-2-yl]-4-methyl-N-[(2S)-1,1,1-trifluoropropan-2-yl]pyridine-3-sulfonamide], the melting point lay within 166 to 171 °C. The 50% inhibitory concentration (IC50) in data set [1] is less than 500 nM.

Turning to `C[C@@H](NS(=O)(=O)c1ccc(-c2c(C#N)c3cc(F)cnc3n2C2CCC2)nc1)C(F)(F)F` [Cpd 47, 6-(3-cyano-1-cyclobutyl-5-fluoro-1H-pyrrolo[2,3-b]pyridin-2-yl)-N-[(2R)-1,1,1-trifluoropropan-2-yl]pyridine-3-sulfonamide], the melting point is 167 to 169 °C. Moreover, the IC50 in data set [1] was less than 500 nM.

In turn, `N#Cc1c(-c2ccc(S(=O)(=O)NC(CF)CF)cc2)n(C2CCC2)c2ncccc12` [Cpd 34, 4-(3-cyano-1-cyclobutyl-1H-pyrrolo[2,3-b]pyridin-2-yl)-N-(1,3-difluoropropan-2-yl)benzenesulfonamide] came in with a melting point of 180 to 182 °C. Besides, the IC50 in data set [1] was less than 500 nM.

`CC(C)(C)NS(=O)(=O)c1ccc(-c2c(C(N)=O)c3cc(C(F)(F)F)cnc3n2C2CCC2)cc1` [Cpd 403, 2-[4-(tert-butylsulfamoyl)phenyl]-1-cyclobutyl-5-(trifluoromethyl)-1H-pyrrolo[2,3-b]pyridine-3-carboxamide]: the melting point was in the range of 255 to 257 °C. The molecule also returned an IC50 in data set [1] of less than 500 nM.

`Cc1cnc2c(C#N)c(-c3ccc(S(=O)(=O)NC4(C)CC4)cn3)n(C3CCCC3)c2c1` [Cpd 174, 6-(3-cyano-1-cyclopentyl-6-methyl-1H-pyrrolo[3,2-b]pyridin-2-yl)-N-(1-methylcyclopropyl)pyridine-3-sulfonamide] yielded a melting point of 215 to 217 °C. In data set [1], this molecule gave a half-inhibitory concentration (IC50) of less than 500 nM.

As for `Cc1cnc2c(c1)c(C#N)c(-c1ccc(S(=O)(=O)N[C@@H](C)C(F)(F)F)cn1)n2-c1ccnnc1` [Cpd 436, 6-[3-cyano-5-methyl-1-(pyridazin-4-yl)-1H-pyrrolo[2,3-b]pyridin-2-yl]-N-[(2S)-1,1,1-trifluoropropan-2-yl]pyridine-3-sulfonamide], the melting point was in the range of 196 to 198 °C. The molecule also displayed an IC50 in data set [1] of less than 500 nM.

For `CC(C)(NS(=O)(=O)c1ccc(-c2c(C(N)=O)c3cc(C(F)(F)F)cnc3n2C2CCCC2)nc1)C(F)(F)F` [Cpd 406, 1-cyclopentyl-5-(trifluoromethyl)-2-{5-[(1,1,1-trifluoro-2-methylpropan-2-yl)sulfamoyl]pyridin-2-yl}-1H-pyrrolo[2,3-b]pyridine-3-carboxamide], the melting point lay within 244 to 246 °C. In data set [1], the concentration for half-maximal inhibition (IC50) was less than 500 nM.

Regarding `C[C@H](NS(=O)(=O)c1ccc(-c2c(C#N)c3cc(F)cnc3n2-c2ccccn2)nc1)C(F)(F)F` [Cpd 322, 6-[3-cyano-5-fluoro-1-(pyridin-2-yl)-1H-pyrrolo[2,3-b]pyridin-2-yl]-N-[(2S)-1,1,1-trifluoropropan-2-yl]pyridine-3-sulfonamide], the melting point was in the range of 229 to 231 °C. This molecule showed an IC50 in data set [1] of less than 500 nM.

Regarding `Cc1cnc2c(c1)c(C#N)c(-c1ccc(S(=O)(=O)N[C@@H](C)C(F)(F)F)cn1)n2-c1cc(C#N)ncn1` [Cpd 508, 6-[3-cyano-1-(6-cyanopyrimidin-4-yl)-5-methyl-1H-pyrrolo[2,3-b]pyridin-2-yl]-N-[(2S)-1,1,1-trifluoropropan-2-yl]pyridine-3-sulfonamide], the melting point is 120 to 122 °C. In data set [1], this molecule had an IC50 of less than 500 nM.

In the case of `C[C@@H](NS(=O)(=O)c1ccc(-c2c(C#N)c3cc(Cl)ncc3n2C2CCC2)cc1)C(F)(F)F` [Cpd 105, 4-(5-chloro-3-cyano-1-cyclobutyl-1H-pyrrolo[2,3-c]pyridin-2-yl)-N-[(2R)-1,1,1-trifluoropropan-2-yl]benzenesulfonamide], the melting point lay within 248 to 250 °C. In data set [1], this molecule gave an IC50 of less than 500 nM.

In turn, `C[C@H](NS(=O)(=O)c1ccc(-c2c(C(N)=O)c3cc(C(F)(F)F)cnc3n2C2CCCC2)nc1)C(F)(F)F` [Cpd 409, 1-cyclopentyl-5-(trifluoromethyl)-2-(5-{[(2S)-1,1,1-trifluoropropan-2-yl]sulfamoyl}pyridin-2-yl)-1H-pyrrolo[2,3-b]pyridine-3-carboxamide] showed a melting point of 261 to 263 °C. In data set [1], this molecule registered an IC50 of less than 500 nM.
